# Results reported in US20200237864A1, “METHODS AND COMPOSITIONS FOR TREATING FIBROTIC INTERSTITIAL LUNG DISEASE” (INSERM (INSTITUT NATIONAL DE LA SANTÉ ET DE LA RECHERCHE …, priority 2017, published 2020).
# What was measured:
# [1] = tested on: ACTA2; assay: Spontaneous and TGFB1-induced ACTA2 expression in lung fibroblasts (RTPCR, cell-based ELISA); set-up: species or system human
# Protocol: (§1) Primary human normal lung fibroblasts (CCD-16Lu cells, American Type Culture Collection, Manassas, Va., USA) were grown in DMEM-Glutamax medium supplemented with 10% fetal bovine serum and penicillin/streptomycin (Thermofisher, Villebon-sur-Yvette, France), at 37° C. with 5% CO2. Experiments were performed between passages 7 and 12, when cells reached 70% confluency. Fibroblasts were treated either with 100 μM CK666 (Tocris, Lille, France) or 1/1000 dimethylsulfoxide (DMSO, Sigma,St Quentin Fallavier, France) as a control. In a second set of experiments, fibroblasts were transfected with 4 nM of either short interfering RNAs targeting ARPC2 (siARPC2, Silencer Select, Thermofisher) or control RNAs (siControl), using the Lipofectamine RNAimax reagent (Thermofisher). For cell growth assays, 50 000 cells/well were plated in 12-well plates, grown for 4 days, detached with 5% trypsin and counted using Kova Glasstic counting slides (Thermofisher). For differentiation assays, cells were plated in 12-well plates, grown to 70% confluency, treated for 24 h with siControl or siARPC2 when appropriate, starved of serum for 24 h, and treated with either CK666 or DMSO 30 minutes before treatment with either 5 ng/ml recombinant human TGFB1 (R&D Systems, Lille, France) of control solvent for 48h. Cell proteins were recovered in 100 μl lysis buffer (50 mM Tris HCl pH7.4, 150 mM NaCl, 0.1% SDS, 0.5% sodium deoxycholate, 1% Triton X-100) with 1% protease inhibitor (P8340, Sigma) and quantitated by the BiCinchoninic acid Assay (Pierce, Thermofisher); mRNA was extracted using the GeneJET RNA Purification Kit (Thermofisher).
# For cell-based ELISA, cells were grown in 12-well plates, fixed with 4% paraformaldehyde for 15 min, permeabilized with 0.5% Triton X-100 in PBS, blocked with 1% bovine albumin, incubated overnight at 4° C. with an ACTA2 primary antibody (A2547, dilution 1/1000, Sigma), and sequentially incubated with an anti-mouse biotinylated antibody (Vector, dilution 1/400), streptavidin-horseradish peroxidase (R&D Systems), and Tetramethylbenzidine substrate (Sigma). The reaction was stopped with […] and absorbance readings were taken at 450 nm with 570 nm as a reference wavelength. […]
# (§2) RNAs were reverse-transcribed using the First Strand cDNA Synthesis Kit (Thermofisher). Transcripts were quantified by RTPCR (Sybr select Master Mix, Thermofisher) and expressed relative to UBC (human samples) or Gapdh (mouse samples) as an endogenous control using the 2^−ΔCt method.
# [2] = tested on: COL1; assay: Spontaneous and TGFB1-induced COL1 expression in lung fibroblasts (RTPCR, ELISA); type: cell-based, human; conditions: CK666 100 μM
# Protocol: as §1
# Procollagen-1 (COL1) and Glyćeraldéhyde-3-phosphate déshydrogenase (GAPDH) were quantified by ELISA (DY6220 and DYC5718, R&D Systems). COL1 was expressed relative to GAPDH as an endogenous control.
# as §2
# [3] = tested on: G/F actin ratio in lung fibroblasts (CCD-16Lu cells); assay: Determination of G- and F-actin levels in lung fibroblasts; type: cell-based, human
# Protocol: Primary human normal lung fibroblasts (CCD-16Lu cells, American Type Culture Collection, Manassas, Va., USA) were grown in DMEM-Glutamax medium supplemented with 10% fetal bovine serum and penicillin/streptomycin (Thermofisher, Villebon-sur-Yvette, France), at 37° C. with 5% CO2. Experiments were performed between passages 7 and 12, when cells reached 70% confluency. Fibroblasts were treated either with 100 μM CK666 (Tocris, Lille, France) or 1/1000 dimethylsulfoxide (DMSO, Sigma,St Quentin Fallavier, France) as a control. […] For cell growth assays, 50 000 cells/well were plated in 12-well plates, grown for 4 days, detached with 5% trypsin and counted using Kova Glasstic counting slides (Thermofisher). […] Cell proteins were recovered in 100 μl lysis buffer (50 mM Tris HCl pH7.4, 150 mM NaCl, 0.1% SDS, 0.5% sodium deoxycholate, 1% Triton X-100) with 1% protease inhibitor (P8340, Sigma) and quantitated by the BiCinchoninic acid Assay (Pierce, Thermofisher); mRNA was extracted using the GeneJET RNA Purification Kit (Thermofisher).
# 500 000 cells were seeded in 75 cm2 flasks and treated with either CK666 or DMSO for 24 h. […] Supernatant (G-actin) and pellet (F-actin) samples were analyzed by immunoblotting on polyvinylidene fluoride membranes using a beta-actin primary antibody (Sigma).
# [4] = tested on: bleomycin-induced lung fibrosis; type: in vivo, C57BL6-J mice
# Protocol: Male, 8-week old C57BL6-J mice (Janvier, Le Genest-St-Ile, France) were treated with an orotracheal instillation of either 120 μg bleomycin (Laboratoires Bellon, France) or saline, under isoflurane anesthesia. In a first set of experiments, mice were treated from the 7th to the 14th day following instillation with daily subcutaneous injections of either 5 mg/kg of the Arp2/3 inhibitor CK666 (Tocris Biochemicals, Bristol, UK) in 100 μl of 40% Dimethylsulfoxide in saline (vehicle) (M. Park et al. 2013), or vehicle alone. Mice were monitored and weighted daily and their diet was supplemented with gel-based food (Dietgel Recovery gels, ClearH2O, Westbrook, Me., USA). On the 14th day following bleomycin, mice were anesthetized with 300 mg/kg Ketamine and 30 mg/kg xylazine, and euthanized by exsanguination. Bronchoalveolar lavage was performed with 2×1 ml saline. Lung were either snap-frozen in liquid nitrogen or inflation-fixed in 4% formaldehyde. Inhibition of the Arp2/3 complex in vivo. The study protocol was approved by the regional ethics board (APAFIS#5669-20 16061413402331).
# Total insoluble collagen was quantified in left lung homogenates (Sircol Insoluble collagen Assay, Biocolor, Carrickfergus, UK). Soluble procollagen-1 was quantified in homogenates of the right upper lung lobe by ELISA (DY6220, R&D Systems). RNAs were extracted from the right middle lung lobe (Allprep, Qiagen) and reverse-transcribed (First Strand cDNA Synthesis Kit, Thermofisher). Transcripts associated with fibrogenesis were quantified by RTPCR (Sybr select Master Mix, Thermofisher) and expressed relative to Gapdh as an endogenous control. The activity of enzymes key to collagen polymerization and degradation was measured in lysates of right lower lobe using fluorimetric assays specific for lysil oxidase (Amplite™ Fluorimetric Lysyl Oxidase Assay, AAT Bioquest, Sunnyvale, Calif., USA) and collagenase (fluorimetric DQ collagen type 1, Sigma Aldrich, St Quentin-Fallavier, France). Clostridium histolyticum collagenase (Sigma-Aldrich) was used as a positive control for collagenase assays. Total BALF proteins were measured with the BCA protein assay (Thermofisher). BALF cells were counted using a hemocytometer. For histological analysis, 5-μm sections of paraffin-embedded lung were stained with Masson's trichrome stain.
# [5] = tested on: Primary human normal lung fibroblasts (CCD-16Lu cells); assay: Lung fibroblast cell growth assay; type: cell-based; conditions: CK666 100 μM vs DMSO, Day 4
# Protocol: as §1, with “For differentiation assays, cells were plated in 12-well plates, grown to 70% confluency, treated for 24 h with siControl or siARPC2 when appropriate, starved of serum for 24 h, and treated with either CK666 or DMSO 30 minutes before treatment with either 5 ng/ml recombinant human TGFB1 (R&D Systems, Lille, France) of control solvent for 48h.” left out
# [6] = bleomycin-instilled mice, CK666 vs vehicle
# [7] = lung lysates, bleomycin-instilled mice, CK666 vs vehicle
# [8] = mouse lungs, CK666 5 mg/kg daily day 7-14, RTPCR
structure (smiles),measurement,setting,value
Cc1[nH]c2ccccc2c1CCNC(=O)c1ccccc1F [CK666],TGFB1-driven increase in ACTA2 mRNA,"[1]; TGFB1 5 ng/ml 48 h, RTPCR",partially
same,TGFB1-driven increase in ACTA2 protein,"[1]; TGFB1 5 ng/ml 48 h, cell-based ELISA",totally
same,expression of ACTA2 mRNA,"[1]; unstimulated lung fibroblasts, CK666 100 μM, RTPCR",did not modulate
same,expression of ACTA2 protein,"[1]; unstimulated lung fibroblasts, CK666 100 μM, cell-based ELISA",did not modulate
same,reduction of the TGFB1-driven increase in COL1 protein,"[2]; TGFB1 5 ng/ml, ELISA, trend, p=0.13",30%
same,TGFB1-driven increase in COL1A1 mRNA,"[2]; TGFB1 5 ng/ml, RTPCR",did not modulate
same,TGFB1-driven increase in COL1A2 mRNA,"[2]; TGFB1 5 ng/ml, RTPCR",did not modulate
same,reduction of COL1/GAPDH protein ratio,"[2]; unstimulated cells, ELISA",54%
same,expression of COL1A1 mRNA,"[2]; unstimulated cells, RTPCR",did not modulate
same,expression of COL1A2 mRNA,"[2]; unstimulated cells, RTPCR",did not modulate
same,TGFB1-induced increase in the G/F actin ratio,"[3]; TGFB1 5 ng/ml, CK666 100 μM or 4 nM siARPC2",inhibited
same,G/F actin ratio,"[3]; unstimulated lung fibroblasts, CK666 100 μM vs DMSO or 4 nM siARPC2 vs siControl",increased
same,reduction of lung content in procollagen-1,"[4]; bleomycin-instilled mice, CK666 5 mg/kg daily day 7-14 vs vehicle, ELISA",55%
same,bleomycin-induced increase in BALF total protein,[4]; [6],reduced neither
same,bleomycin-induced weight loss,[4]; [6],reduced neither
same,lung levels of LOX mRNA,[4]; [6],did not reduced
same,lung levels of LOXL2 mRNA,[4]; [6],did not reduced
same,lung levels of TG2 mRNA,[4]; [6],did not reduced
same,bleomycin-induced increase in lung Collal mRNA,"[4]; bleomycin-instilled mice, CK666 vs vehicle, RTPCR relative to Gapdh",did not reduce
same,reduction of lung insoluble collagen,"[4]; bleomycin-instilled mice, left lung, CK666 5 mg/kg daily day 7-14 vs vehicle, Sircol assay",20%
same,bleomycin-induced increase in lung lysyl oxidase activity,[4]; [7],not modified
same,lung collagenase activity,[4]; [7],no effect
same,lung expression of Arp2 mRNA,[4]; [8],increased expression
same,lung expression of ArpCla mRNA,[4]; [8],increased expression
same,lung expression of Arpc3 mRNA,[4]; [8],increased expression
same,lung histology,"[4]; mouse, in vivo",did not result in modifications of lung histology
same,reduction of cell growth (fold-increase in cell number relative to seeding),[5],36%
